Results: patent US20240369544A1, “MULTIVALENT GLYCAN SCAFFOLDS AND METHODS OF USE THEREOF” (NovAb, Inc., priority 2021, published 2024)
Where no end group is shown, it is not given here. The star is where a group is joined. αGalNAc = CC(=O)N[C@@H]1[C@@H](O)[C@@H](O)[C@@H](CO)O[C@@H]1*; GalNAcα = O-linked α-N-acetylgalactosamine

Legend:
[1] = test system: O13 YSD cells (yeast cells expressing the lamprey O13 VLRB anti-H3 antibody on their surface); format: binding
Description: The O13 YSD cells were then washed 3 times with ice-cold TSM-BSA, then resuspended in 250 μL TMS-BSA to which 1 μL of PI was added to stain live/dead cells. 125 μL of each sample were used for flow cytometry measurements.

anti-H3 antibody = experiment: Dissociation constant of monomer H3:anti-H3 antibody interaction; format: binding
[2] = molecular target: T1, Peanut agglutinin lectin (PNA) (Arachis hypogaea, UniProt P02872); experiment: Lectin assay of dendrimers on magnetic beads, PNA; format: binding; settings: dendrimers coupled to streptavidin magnetic beads; lectin at 2 μg/mL pre-complexed with Avidin-HRP
T1 sequence (P02872 whole entry, looked up): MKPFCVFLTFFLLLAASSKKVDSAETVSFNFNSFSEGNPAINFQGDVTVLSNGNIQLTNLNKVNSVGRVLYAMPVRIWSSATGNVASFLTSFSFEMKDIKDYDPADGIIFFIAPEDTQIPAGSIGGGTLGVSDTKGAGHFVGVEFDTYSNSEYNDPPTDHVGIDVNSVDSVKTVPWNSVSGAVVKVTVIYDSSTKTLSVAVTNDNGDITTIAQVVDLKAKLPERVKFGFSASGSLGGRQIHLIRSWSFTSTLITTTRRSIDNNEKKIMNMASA
Description: (§1) The Avidin-HRP was purchased from SouthemBiotech. […] 3 μL of dendrimer beads were used per assay.

[3] = test system: Vicia Villosa lectin (VVL); experiment: Lectin assay of dendrimers on magnetic beads, VVL; format: binding; settings: dendrimers coupled to streptavidin magnetic beads; lectin at 2 μg/mL pre-complexed with Avidin-HRP
Description: as §1

[4] = molecular target: T2, Peanut agglutinin lectin (PNA), biotinylated, Vector Laboratories (Peanut, UniProt P02872 24-259, limits assumed, biotinylated (sites not given)); experiment: lectin assay: dendrimer on streptavidin magnetic beads, biotinylated lectin pre-complexed with Avidin-HRP, TMB read-out
T2 construct: Lectin, described as specific for galactose as found in T-antigen; It was pre-complexed with Avidin-HRP for the assay
T2 sequence (looked up): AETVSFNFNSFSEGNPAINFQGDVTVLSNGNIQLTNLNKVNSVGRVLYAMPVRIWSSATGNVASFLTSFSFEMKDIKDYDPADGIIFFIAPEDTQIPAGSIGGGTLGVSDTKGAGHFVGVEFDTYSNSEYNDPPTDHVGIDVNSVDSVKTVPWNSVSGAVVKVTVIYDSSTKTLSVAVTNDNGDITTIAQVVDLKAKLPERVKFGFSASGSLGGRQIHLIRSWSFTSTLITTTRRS

Molecule: CC(=O)N[C@H]1C(O)O[C@H](CO)[C@@H](O[C@@H]2O[C@H](CO)[C@H](O)[C@H](O)[C@H]2O[C@@H]2O[C@@H](C)[C@@H](O)[C@@H](O)[C@@H]2O)[C@@H]1O (stereo partly drawn) [monomer H3, Blood group H type 2 trisaccharide]
- binding by O13 YSD cells (flow cytometry) [1]: not detected
- Kd (anti-H3 antibody): 2000 nM
- koff of monomer H3:anti-H3 antibody complex (anti-H3 antibody; from Kd=koff/kon with kon 10^6 M^−1 s^−1): 2 s⁻¹

Molecule: GP100120-dendrimers: Synthetic fibroin glycopeptide GP100120 (GAT*ES*RGAGAGA-NH2, GalNAc on Ser and Thr, SEQ ID NO:5) conjugated to 8-arm-PEG-NHS compound (GAT(αGalNAc)ES(αGalNAc)RGAGAGA-NH2; also: conjugated to 8-arm-PEG-NHS (dendrimer), site not given here)
- reactivity to PNA lectin [2]: negative
- reactivity to VVL lectin [3]: positive

B1: GP100120-dendrimer: synthetic fibroin glycopeptide GP100120 (GAT*ES*RGAGAGA-NH2) conjugated to 8-arm-PEG-NHS (7 arms NHS, 1 arm biotin) (peptide)
peptide: GAT(GalNAcα)ESRGAGAGA-NH2
modifications: not fully specified (residue 5); printed as GAT*ES*RGAGAGA-NH2; also: coupled through a primary amine to NHS arm of 8-arm PEG (7 NHS arms, 1 biotin arm), multivalent, copy number not given here
notes: The dendrimer was captured on streptavidin magnetic beads by its biotin; also called GP100121 glycopeptide dendrimer; GP100121 dendrimer
- binding result [4]: no binding (tested: 2 µg/mL)
